Measured values: PMC5059943, “Screening for peptides targeted to IL-7Rα for molecular imaging of rheumatoid arthritis synovium” (Arthritis Research & Therapy, 2016)
Where a SMILES comes first, the peptide text is derived from it. Bridges are numbered along the chain shown (N, C = ends). Where no end group is shown, it is not given here. The star is where a group is joined. Biotin = O=C1N[C@H]2[C@H](CS[C@H]2CCCCC(=O)*)N1; AEEA = NCCOCCOCC(=O)O

Legend:
[1] = target: T1, IL-7Rα (Homo sapiens, UniProt P16871); assay: ELISA of biotinylated peptides, K*d for IL-7Rα; type: binding; conditions: synthesized peptides, IL-7Rα vs. FN
T1 construct: screened against the extracellular domain of IL-7Rα (E^21–D^239); Fc (chimera partner); purchased R&D Systems
T1 sequence (P16871 21-239): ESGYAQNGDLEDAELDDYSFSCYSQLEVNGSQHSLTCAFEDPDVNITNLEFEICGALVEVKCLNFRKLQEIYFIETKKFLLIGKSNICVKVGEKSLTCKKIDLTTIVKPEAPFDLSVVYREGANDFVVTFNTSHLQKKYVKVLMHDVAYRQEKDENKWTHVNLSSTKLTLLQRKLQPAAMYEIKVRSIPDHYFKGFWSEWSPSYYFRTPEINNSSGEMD
Procedure: (§1) Serial dilutions of biotinylated peptides were incubated with IL-7Rα or FN immobilized on ELISA plates as described above and blocked with protein-free blocking buffer (PFBB) (Perbioscience, Erembodegem, Belgium). Peptides bound to the target were detected with a goat anti-biotin antibody, followed by a peroxidase-conjugated anti-goat antibody made in horse (both from Vector Labconsult, Brussels, Belgium). […] The protocol is largely described in Additional file 1: Methods. […]
(§2) screening of the phage clones.
(§3) After 30 min of incubation, the […]
(§4) antibody as described above.
(§5) 2. Characterization of the selected IL-7Rα-binding peptides […]
(§6) by an incubation of 2h at 37°C. The wells were subsequently incubated (1h, room temperature) […]
(§7) 20 and 0.5% BSA (1h, room temperature). After each incubation step, the wells were washed with PBST-0.05% using a microplate washer. The staining reaction was developed with 0.1 […]
(§8) For this purpose, a range of IL-

[2] = target: T2, FN (Homo sapiens, UniProt P02751); assay: ELISA of biotinylated peptides, K*d for FN; type: binding; conditions: Fig. 1a, 2 h at 37 °C, read-out: Kd: FN, synthesized peptides
T2 construct: fragment 3 of recombinant human FN-1 (R&D Systems); purchased R&D Systems
Procedure: as §1, §2, §3, §4, §5, §6, §7, §8

[3] = target: IL-7Rα (high-affinity receptor) (Homo sapiens) (UniProt P16871); conditions: cited from earlier work
[4] = tested on: IL-7Rα expression of Jurkat cells; assay: IL-7Rα expression of ADC vs. NS Jurkat cells; type: cell-based; conditions: 0.4 μM ADC, 4 days
Procedure: Jurkat cells were cultured in RPMI-1640 culture medium supplemented with 10 % newborn calf serum heat-inactivated and 1 % antibiotic-antimycotic (all from Invitrogen). The cells were stimulated with 0.4 μM of 5-Aza-2’-deoxycytidine (ADC, Sigma-Aldrich) [26]. The stimulated cells were immobilized on poly-L-lysine (Sigma-Aldrich) coated coverslips and fixed in a solution of 4 % formaldehyde (Sigma-Aldrich). […] Biotinylated peptides were detected with a goat anti-biotin antibody followed by fluorescein-conjugated rabbit anti-goat antibody (both from Vector Labconsult). Anti-IL-7Rα antibody was detected with Texas Red horse anti-mouse antibody (Vector Labconsult). […] The coverslips were mounted on slides with Vectashield mounting medium for fluorescence with 4',6-diamidino-2-phenylindole (DAPI) (Vector Labconsult) and observed on a DM2000 Leica microscope equipped with a DFC 425C camera (Leica Microsystems, Groot Bijgaarden, Belgium).
USPIO-P258 was co-localized with IL-7Rα expressed by Jurkat cells using an immunofluorescence protocol. […] The coverslips were finally mounted on slides with a mounting medium for fluorescence (Vector Labconsult). The RRFL was evaluated as described above.

[5] = tested on: IL-7Rα expressed by ADC-stimulated Jurkat cells; assay: Binding of peptides to ADC-stimulated Jurkat cells and co-localization with IL-7Rα by immunofluorescence; type: cell-based, human
Procedure: The cells were stimulated with 0.4 μM of 5-Aza-2’-deoxycytidine (ADC, Sigma-Aldrich). The stimulated cells were immobilized on poly-L-lysine (Sigma-Aldrich) coated coverslips and fixed in a solution of 4 % formaldehyde (Sigma-Aldrich). […] Biotinylated peptides were detected with a goat anti-biotin antibody followed by fluorescein-conjugated rabbit anti-goat antibody (both from Vector Labconsult). Anti-IL-7Rα antibody was detected with Texas Red horse anti-mouse antibody (Vector Labconsult). Control samples consisted of ADC-stimulated or non-stimulated (NS) Jurkat cells incubated with low-affinity peptide binders (e.g., P255, P259), a mouse IgG isotype control, or with secondary antibodies after excluding the primary antibodies. […] The protocol is additionally described in Additional file 1: Methods.
to the target was detected as described above.
(Sigma-Aldrich) diluted in PBS.
(Vector Labconsult) diluted in phosphate buffer. They were then co-incubated (1h, room
camera (Leica Microsystems, Groot Bijgaarden, Belgium).

[6] = tested on: lysosome content of Jurkat cells; assay: Lysosome content of Jurkat cells (Lysotracker Red DND-99); type: cell-based
[7] = tested on: STAT5 activation in ADC-stimulated Jurkat cells; assay: Phospho-STAT5 detection on ADC-stimulated Jurkat cells by immunofluorescence; type: cell-based, human
Procedure: The solutions were replaced every day after culture tube centrifugation and supernatant removal.
The signal intensity (SI) was measured on microphotographs corresponding to three to six different microscopic fields using the ImageJ software (National Institutes of Health, USA), and the relative ratio of fluorescent labeling (RRFL) was then calculated using the subsequent equation: RRFL=SIsample/Numberofcells/SInegativecontrols/Numberofcells×100 […]
stained with 0.05% 3,3'-diaminobenzidine (DAB) completed with 0.02% H2O2 in PBS. Finally, they were counterstained with Hemalun and Luxol fast blue and mounted in a permanent […]
To validate the binding of biotinylated P258 to human knee sections, the endogenous biotin was first blocked with a blocking kit (Invitrogen). The histologic sections were then incubated (4°C, overnight) with 1 µM of P258, followed by an incubation (1h, room […]
goat antibody made in horse (Vector Labconsult). The staining and counterstaining were performed as described above for anti-IL-7Rα monoclonal antibody.
2.5. Phospho-STAT5 detection on Jurkat cells and modulation by peptide P725 Jurkat cells were cultured and stimulated with ADC as described above. The experiment was performed in triplicate on stimulated and non -stimulated cells that were distributed in several culture tubes at a concentration of 10^6 cells/mL and treated (37°C in a humidified 5% CO2 incubator) with different compounds diluted in the culture medium as follows: (A) cells […]
for 30 min with 1 mM of P725; (C) cells pre-incubated for 30 min with 10 µg/mL of mo use […]
In the case of samples B and C, the […]
replaced every day after centrifuging the culture tubes and removing the precedent solutions by […]
At the end of the treatment period, the cells were immobilized on poly -L-lysine coated coverslips and fixed with 4% formaldehyde as described above. After three times rinsing with PBS, the cells were treated with 100% methanol for 10 min at -20°C. […] The primary antibodies bound to the cells were then detected by a co- […]

[8] = target: high-affinity IL-7R; conditions: read-out: Kd of IL-7 against high-affinity IL-7R, reported previously; cited from earlier work
From the text: (§9) In addition, two antibodies were used to detect IL-7, which means that additional rinsing steps may contribute to extensive prot ...

[9] = target: low-affinity IL-7R; conditions: read-out: Kd of IL-7 against low-affinity IL-7R, reported previously; cited from earlier work
From the text: as §9

[10] = target: T3, IL-7Rα 21-239 (Homo sapiens, UniProt P16871); assay: ELISA
T3 chain: T1 sequence (P16871 21-239)

[11] = target: T3, IL-7Rα 21-239; assay: competition ELISA vs IL-7

T2 sequence (P02751 607-1265 limits assumed): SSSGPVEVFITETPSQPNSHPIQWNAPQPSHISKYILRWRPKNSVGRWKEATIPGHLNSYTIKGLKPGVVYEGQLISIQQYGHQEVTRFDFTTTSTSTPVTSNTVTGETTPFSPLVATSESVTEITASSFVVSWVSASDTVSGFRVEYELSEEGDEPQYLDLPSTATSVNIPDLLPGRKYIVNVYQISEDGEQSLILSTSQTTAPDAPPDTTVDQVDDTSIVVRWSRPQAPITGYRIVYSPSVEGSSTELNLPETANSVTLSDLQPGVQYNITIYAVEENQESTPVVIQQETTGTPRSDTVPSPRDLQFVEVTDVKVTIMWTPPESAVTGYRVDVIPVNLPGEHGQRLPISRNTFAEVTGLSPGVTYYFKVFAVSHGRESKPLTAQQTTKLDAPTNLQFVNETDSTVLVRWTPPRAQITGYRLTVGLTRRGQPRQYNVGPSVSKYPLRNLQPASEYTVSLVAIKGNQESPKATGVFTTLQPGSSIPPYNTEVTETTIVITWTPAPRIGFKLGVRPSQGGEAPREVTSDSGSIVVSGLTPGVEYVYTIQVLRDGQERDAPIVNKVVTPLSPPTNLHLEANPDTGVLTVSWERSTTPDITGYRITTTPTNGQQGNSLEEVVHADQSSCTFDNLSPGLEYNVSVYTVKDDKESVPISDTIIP

C[C@@H]1NC(=O)[C@@H](NC(=O)COCCOCCNC(=O)CCCC[C@@H]2SC[C@@H]3NC(=O)N[C@@H]32)CSSC[C@@H](C(N)=O)NC(=O)[C@H](Cc2c[nH]cn2)NC(=O)[C@@H]2CCCN2C(=O)[C@@H]2CCCN2C(=O)[C@H](CS)NC(=O)[C@H](C)NC(=O)[C@H](CO)NC1=O [Peptide P726] ({Biotin-AEEA}-CASACPPHC-NH2; disulfide 1-9; C-terminus assumed)
Relative affinity for IL-7Rα and FN, peptides [1]: highest specific binding to IL-7Rα

ASACPPH-NH2 [Peptide P258]
Kd [2]: 1800 nM

C[C@@H]1NC(=O)[C@@H]2CCCN2C(=O)[C@H](CCCNC(=N)N)NC(=O)[C@H](CCC(N)=O)NC(=O)[C@@H]2CCCN2C(=O)[C@H](Cc2c[nH]cn2)NC(=O)[C@@H]2CCCN2C(=O)[C@@H](NC(=O)COCCOCCNC(=O)CCCC[C@@H]2SC[C@@H]3NC(=O)N[C@@H]32)CSSC[C@@H](C(N)=O)NC1=O [Peptide P722] ({Biotin-AEEA}-CPHPQRPAC-NH2; disulfide 1-9; C-terminus assumed)
Relative affinity for IL-7Rα and FN, peptides [1]: lost its affinity against IL-7Rα, displaying equivalent binding to FN

IL-7 (from UniProt P13232)
Kd [3]: 0.2 nM

Nc1ncn([C@H]2C[C@H](O)[C@@H](CO)O2)c(=O)n1 [ADC, 5-Aza-2’-deoxycytidine]
IL-7Rα expression in ADC cells vs. NS cells (fold) [4]: about six

CC[C@H](C)[C@@H]1NC(=O)[C@H](CCCCN)NC(=O)[C@@H](NC(=O)COCCOCCNC(=O)CCCC[C@@H]2SC[C@@H]3NC(=O)N[C@@H]32)CSSC[C@@H](C(N)=O)NC(=O)[C@@H]2CCCN2C(=O)[C@H](CCSC)NC(=O)[C@H](CO)NC(=O)[C@H](CCCCN)NC(=O)[C@H](CCSC)NC1=O [Peptide P725] ({Biotin-AEEA}-CKIMKSMPC-NH2; disulfide 1-9; C-terminus assumed)
Co-localization with IL-7Rα ([5]; biotinylated P258 (0.04 μM) or P725 (5 μM)): co-localizes with peptides
Decrease of anti-IL-7Rα monoclonal antibody staining intensity ([5]; biotinylated P725 (5 μM), overnight 4 °C): 57%
Lysosome content after treatment ([6]; with IL-7, P725 or anti-IL-7Rα antibody, p < 0.05): significantly diminished
Inhibition of IL-7-induced STAT5 activation ([7]; P725 1 mM or antibody 10 µg/mL pre-incubated 30 min, then IL-7 6 ng/mL 48 h, ADC-stimulated Jurkat cells): 82%
Prevention of IL-7 binding and STAT-5 activation ([7]; P725 1 mM or antibody 10 µg/mL pre-incubated 30 min, then IL-7 6 ng/mL 48 h, p < 0.01): prevented IL-7 binding and STAT-5 activation

IL-7: human recombinant IL-7 (R&D Systems; eBioscience)
Increase in lysosome content ([6]; IL-7 vs. ADC-treated controls): 398%
Kd [8]: 0.2 nM
Kd [9]: 10 nM
Increase in phospho-STAT-5 ([7]; IL-7 6 ng/mL, 48 h, vs. ADC-treated controls): 424%

ASACPPH (also: biotin-AEEA attached, end not given here) [P258]
Kd [10]: 600 nM

ASACPPH-NH2 (also: AEEA attached, end not given here, conjugated to PEGylated USPIO) [USPIO-P258]
IC50 [11]: 6600 nM
Kd [10]: 4900 nM

CKIMKSMPC (disulfide 1-9 (inferred); also: biotin-AEEA attached, end not given here)
Kd [10]: 1100 nM

CKIMKSMPC (disulfide 1-9 (inferred); also: AEEA attached, end not given here)
IC50 [11]: 16400 nM
